AC50, EC50 and IC50 data for 5 compounds are collected here from ChEMBL document CHEMBL1201862, “PubChem BioAssay data set” (2004).

Active and inactive are the calls of the source. Bounds are passed on as bounds.

The subject of one assay is Escherichia coli. Briefly: microbe, parasite or virus in culture.
Assay [1] concerns the target T1, Short transient receptor potential channel 4 (Mus musculus, UniProt Q9QUQ5).
T1 sequence (Q9QUQ5 whole entry): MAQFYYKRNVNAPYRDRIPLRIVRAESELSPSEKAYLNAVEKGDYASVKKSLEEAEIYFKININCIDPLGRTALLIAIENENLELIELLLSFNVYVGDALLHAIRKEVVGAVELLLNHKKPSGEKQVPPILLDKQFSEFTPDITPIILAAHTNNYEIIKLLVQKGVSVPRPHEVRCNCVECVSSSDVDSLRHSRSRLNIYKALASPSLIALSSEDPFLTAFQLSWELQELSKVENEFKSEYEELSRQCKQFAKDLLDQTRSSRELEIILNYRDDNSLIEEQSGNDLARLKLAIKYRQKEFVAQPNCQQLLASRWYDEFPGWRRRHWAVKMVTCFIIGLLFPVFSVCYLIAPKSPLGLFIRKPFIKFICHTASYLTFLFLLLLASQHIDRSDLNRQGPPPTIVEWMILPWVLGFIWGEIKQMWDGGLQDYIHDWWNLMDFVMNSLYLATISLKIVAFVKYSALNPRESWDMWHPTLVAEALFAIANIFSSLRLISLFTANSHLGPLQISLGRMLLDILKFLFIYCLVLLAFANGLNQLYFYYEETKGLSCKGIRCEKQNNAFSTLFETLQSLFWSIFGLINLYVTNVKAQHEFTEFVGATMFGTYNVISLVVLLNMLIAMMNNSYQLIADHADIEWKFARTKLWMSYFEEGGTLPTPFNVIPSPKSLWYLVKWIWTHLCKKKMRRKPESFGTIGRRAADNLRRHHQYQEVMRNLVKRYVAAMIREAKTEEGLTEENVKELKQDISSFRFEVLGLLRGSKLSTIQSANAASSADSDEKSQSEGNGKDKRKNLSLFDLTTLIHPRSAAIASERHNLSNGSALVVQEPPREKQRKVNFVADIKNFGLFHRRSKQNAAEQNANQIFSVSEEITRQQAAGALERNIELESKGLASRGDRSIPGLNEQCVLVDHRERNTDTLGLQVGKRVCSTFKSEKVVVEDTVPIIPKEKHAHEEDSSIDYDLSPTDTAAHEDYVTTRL
As to the kind of experiment: block of DAMGO-driven TRPC4 calcium entry – cell-based, HEK293 TRPC4/mu-opioid, Fluo-4 calcium, dose response (AID 434942).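 Also: potency of inhibitors blocking the TRPC4 calcium response.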 It is filed as functional.

Assay [2] concerns the target Delta-type opioid receptor (Homo sapiens, UniProt P41143). Briefly: Counterscreen for agonists of heterodimerization of the mu 1 (OPRM1) and delta 1 (OPRD1) opioid receptors: Luminescence-based cell-based high throughput dose response assay to identify agonists of OPRD1 homodimerization. [Related pubchem assays (depositor defined):AID504326, AID504355, AID504692, AID504904, AID504905]. Type of assay: functional.

For the next assay, the target named is Mu-type opioid receptor (Homo sapiens, UniProt P35372). Briefly: Counterscreen for agonists of heterodimerization of the mu 1 (OPRM1) and delta 1 (OPRD1) opioid receptors: Luminescence-based cell-based high throughput dose response assay to identify agonists of OPRM1 homodimerization. It is filed as functional. On the technique in general: Counterscreens check selectivity or assay interference.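 Also: U2OS cells expressing OPRM1 and beta-arrestin as split beta-galactosidase partners.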

Assay [3] has as its target 5-hydroxytryptamine receptor 5A (Homo sapiens, UniProt P47898). Briefly: Counterscreen for agonists of OPRM1-OPRD1 heterodimerization: luminescence-based cell-based high throughput dose response assay to identify agonists of 5-hydroxytryptamine (serotonin) 5A receptor (HTR5A). [Related pubchem assays (depositor defined):AID504326, AID504355, AID504692, AID504904, AID504905]. It is filed as functional.

Assay [4] is described as follows: cells. It is filed as functional, cell-based.
A short description of assay [5]: cells. Type of assay: functional, cell-based. The source holds these as a separate data set.
The target of another assay is T2, Hexokinase HKDC1 (Homo sapiens, UniProt Q2TB90).
T2 sequence (Q2TB90 whole entry): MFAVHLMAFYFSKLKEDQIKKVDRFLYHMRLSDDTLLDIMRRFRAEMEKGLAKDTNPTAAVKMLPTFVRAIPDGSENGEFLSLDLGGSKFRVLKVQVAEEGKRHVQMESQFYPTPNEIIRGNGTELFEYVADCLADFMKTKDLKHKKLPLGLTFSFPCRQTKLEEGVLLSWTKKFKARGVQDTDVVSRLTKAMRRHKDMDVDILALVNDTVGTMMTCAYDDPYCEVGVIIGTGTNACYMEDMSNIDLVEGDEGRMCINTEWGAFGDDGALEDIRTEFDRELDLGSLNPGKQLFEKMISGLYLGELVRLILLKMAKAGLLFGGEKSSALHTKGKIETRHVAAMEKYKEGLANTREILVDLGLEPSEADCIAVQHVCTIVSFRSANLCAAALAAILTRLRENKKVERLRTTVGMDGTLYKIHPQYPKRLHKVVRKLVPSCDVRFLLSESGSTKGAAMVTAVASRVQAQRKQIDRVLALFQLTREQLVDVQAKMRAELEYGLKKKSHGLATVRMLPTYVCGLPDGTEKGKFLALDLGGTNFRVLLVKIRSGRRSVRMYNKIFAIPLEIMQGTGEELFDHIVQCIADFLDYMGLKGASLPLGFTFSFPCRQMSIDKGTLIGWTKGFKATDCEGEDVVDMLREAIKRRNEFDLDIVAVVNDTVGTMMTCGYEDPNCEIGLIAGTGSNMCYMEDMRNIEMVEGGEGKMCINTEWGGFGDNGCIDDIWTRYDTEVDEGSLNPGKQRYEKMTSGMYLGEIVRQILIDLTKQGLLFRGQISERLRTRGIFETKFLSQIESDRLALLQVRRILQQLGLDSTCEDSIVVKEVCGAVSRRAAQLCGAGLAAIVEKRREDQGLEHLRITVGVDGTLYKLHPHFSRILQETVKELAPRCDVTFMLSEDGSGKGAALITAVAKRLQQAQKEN
Briefly: inhibition of HKDC1 glucose phosphorylation – biochemical, W721R variant, dose response (AID 504729). It is filed as functional.

For assay [6], the target named is T3, Microphthalmia-associated transcription factor (Homo sapiens, UniProt O75030).
T3 sequence (O75030 whole entry): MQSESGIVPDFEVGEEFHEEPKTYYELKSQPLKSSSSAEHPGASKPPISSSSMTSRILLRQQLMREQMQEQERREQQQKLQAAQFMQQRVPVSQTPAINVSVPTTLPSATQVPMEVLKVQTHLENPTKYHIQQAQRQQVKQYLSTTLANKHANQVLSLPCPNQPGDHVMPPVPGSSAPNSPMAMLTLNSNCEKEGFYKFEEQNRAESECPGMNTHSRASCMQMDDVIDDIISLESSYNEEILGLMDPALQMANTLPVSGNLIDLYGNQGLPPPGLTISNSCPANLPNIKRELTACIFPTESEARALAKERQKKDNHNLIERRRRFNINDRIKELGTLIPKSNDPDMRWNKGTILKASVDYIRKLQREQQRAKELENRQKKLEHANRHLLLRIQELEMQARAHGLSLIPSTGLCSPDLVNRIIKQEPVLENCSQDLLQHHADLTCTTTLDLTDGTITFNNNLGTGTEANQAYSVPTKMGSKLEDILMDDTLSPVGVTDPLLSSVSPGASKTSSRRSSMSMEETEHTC
As to the kind of experiment: reducers of TRPM1 reporter luminescence, concentration series – cell-based, SK-MEL-5, cherry-picked, set 3, MITF inhibitor project, dose response (AID 493073).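 Also: SK-MEL-5 melanoma cells with luciferase driven by the MITF target TRPM1 promoter.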 Type of assay: functional.

Assay [7] concerns the target T4, Replicative DNA helicase DnaB (Mycobacterium tuberculosis, UniProt P9WMR3).
T4 sequence (P9WMR3 whole entry): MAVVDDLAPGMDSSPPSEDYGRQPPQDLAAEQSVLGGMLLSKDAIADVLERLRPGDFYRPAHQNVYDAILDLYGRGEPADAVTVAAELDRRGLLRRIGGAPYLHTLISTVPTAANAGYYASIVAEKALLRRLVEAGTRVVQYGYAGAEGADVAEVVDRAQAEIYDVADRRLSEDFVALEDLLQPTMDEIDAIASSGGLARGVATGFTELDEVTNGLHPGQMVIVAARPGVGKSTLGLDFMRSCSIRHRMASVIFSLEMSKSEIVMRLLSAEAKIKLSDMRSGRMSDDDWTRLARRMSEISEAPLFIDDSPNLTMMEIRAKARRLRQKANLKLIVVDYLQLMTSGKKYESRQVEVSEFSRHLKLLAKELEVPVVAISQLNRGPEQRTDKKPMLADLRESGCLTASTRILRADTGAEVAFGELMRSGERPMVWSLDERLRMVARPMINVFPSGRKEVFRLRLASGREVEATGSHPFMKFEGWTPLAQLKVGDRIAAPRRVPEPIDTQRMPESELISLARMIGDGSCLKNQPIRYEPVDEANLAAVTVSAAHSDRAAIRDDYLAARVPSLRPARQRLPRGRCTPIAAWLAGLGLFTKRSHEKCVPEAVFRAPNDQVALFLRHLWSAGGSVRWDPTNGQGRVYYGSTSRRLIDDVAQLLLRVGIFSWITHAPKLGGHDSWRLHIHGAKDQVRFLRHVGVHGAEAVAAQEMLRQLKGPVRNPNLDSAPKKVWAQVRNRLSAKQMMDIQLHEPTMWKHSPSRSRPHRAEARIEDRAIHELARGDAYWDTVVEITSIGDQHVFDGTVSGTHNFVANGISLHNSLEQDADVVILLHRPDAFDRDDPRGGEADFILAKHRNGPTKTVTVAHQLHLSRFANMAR
Briefly: DnaB intein splicing inhibitors, dose response, biochemical, cell-free fluorescence (AID 449749). Type of assay: functional.

In another assay the target is T5, Protein RecA (Mycobacterium tuberculosis, UniProt P9WHJ3).
T5 sequence (P9WHJ3 whole entry): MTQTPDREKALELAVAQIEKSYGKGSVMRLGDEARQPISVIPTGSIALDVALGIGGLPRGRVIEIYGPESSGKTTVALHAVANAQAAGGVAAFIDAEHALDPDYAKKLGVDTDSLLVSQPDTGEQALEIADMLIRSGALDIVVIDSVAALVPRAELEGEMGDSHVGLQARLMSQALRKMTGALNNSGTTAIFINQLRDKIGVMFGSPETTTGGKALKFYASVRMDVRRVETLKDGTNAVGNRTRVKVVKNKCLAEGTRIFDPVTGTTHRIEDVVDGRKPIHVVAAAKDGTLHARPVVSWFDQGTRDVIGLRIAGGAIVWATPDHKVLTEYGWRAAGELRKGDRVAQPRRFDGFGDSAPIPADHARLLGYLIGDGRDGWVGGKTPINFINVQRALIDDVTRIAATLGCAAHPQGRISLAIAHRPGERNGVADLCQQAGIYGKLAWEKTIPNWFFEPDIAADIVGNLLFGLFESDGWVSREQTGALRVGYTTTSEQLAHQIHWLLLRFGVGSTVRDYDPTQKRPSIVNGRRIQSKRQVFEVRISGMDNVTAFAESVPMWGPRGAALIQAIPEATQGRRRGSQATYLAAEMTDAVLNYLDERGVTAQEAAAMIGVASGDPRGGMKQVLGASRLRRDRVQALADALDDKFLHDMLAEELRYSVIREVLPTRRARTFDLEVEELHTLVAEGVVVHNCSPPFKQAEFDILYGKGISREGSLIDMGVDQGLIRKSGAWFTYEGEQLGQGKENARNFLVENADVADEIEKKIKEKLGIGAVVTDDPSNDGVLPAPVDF
As to the kind of experiment: Fluorescence Cell-Free Homogeneous Dose Retest to Identify Inhibitors of RecA-Intein Splicing Activity. [Related pubchem assays (depositor defined):AID2097, AID2223, AID489010, AID492950]. It is filed as functional.

Assay [8] deals with HEK293. As to the kind of experiment: cells. Particulars: Homo sapiens.
The test system of assay [9] is HEK293. As to the kind of experiment: cells. As to conditions: Homo sapiens. The source holds these as a separate data set.
Assay [10] addresses SWI/SNF-related matrix-associated actin-dependent regulator of chromatin subfamily A member 2 (Homo sapiens, UniProt P51531). As to the kind of experiment: Luminescence-based cell-based high throughput dose response assay to identify activators of the function of SWI/SNF related, matrix associated, actin dependent regulator of chromatin, subfamily a, member 2 (SMARCA2, BRM). It is filed as functional.

The nature of assay [11]: Counterscreen for activators of the function of SWI/SNF related, matrix associated, actin dependent regulator of chromatin, subfamily a, member 2 (SMARCA2, BRM): Luminescence-based cell-based high throughput dose response assay to identify non-selective compounds using the VP16 reporter assay. It is filed as functional.

Sequence of Delta-type opioid receptor (P41143 whole entry): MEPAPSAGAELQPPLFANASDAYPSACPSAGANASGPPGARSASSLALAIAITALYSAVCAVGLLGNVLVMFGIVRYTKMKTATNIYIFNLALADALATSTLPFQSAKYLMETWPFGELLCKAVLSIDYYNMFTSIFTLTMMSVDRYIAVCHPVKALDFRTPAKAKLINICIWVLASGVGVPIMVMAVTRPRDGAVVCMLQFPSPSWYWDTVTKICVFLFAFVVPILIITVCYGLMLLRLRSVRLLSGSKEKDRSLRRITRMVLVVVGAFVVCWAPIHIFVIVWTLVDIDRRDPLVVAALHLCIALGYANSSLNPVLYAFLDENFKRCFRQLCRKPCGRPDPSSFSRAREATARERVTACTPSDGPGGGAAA
Sequence of Mu-type opioid receptor (P35372 whole entry): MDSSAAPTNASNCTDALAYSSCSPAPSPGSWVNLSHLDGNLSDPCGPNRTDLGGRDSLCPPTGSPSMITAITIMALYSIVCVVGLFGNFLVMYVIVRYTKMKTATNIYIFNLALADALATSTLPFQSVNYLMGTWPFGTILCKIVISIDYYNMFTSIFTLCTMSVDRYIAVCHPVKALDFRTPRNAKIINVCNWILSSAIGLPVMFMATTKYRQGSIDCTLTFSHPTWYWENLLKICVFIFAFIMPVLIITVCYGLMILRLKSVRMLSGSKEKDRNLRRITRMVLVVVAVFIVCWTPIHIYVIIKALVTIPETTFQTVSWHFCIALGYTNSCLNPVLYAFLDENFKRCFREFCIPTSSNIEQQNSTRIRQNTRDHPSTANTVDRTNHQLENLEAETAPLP
Sequence of SWI/SNF-related matrix-associated actin-dependent regulator of chromatin subfamily A member 2 (P51531 whole entry): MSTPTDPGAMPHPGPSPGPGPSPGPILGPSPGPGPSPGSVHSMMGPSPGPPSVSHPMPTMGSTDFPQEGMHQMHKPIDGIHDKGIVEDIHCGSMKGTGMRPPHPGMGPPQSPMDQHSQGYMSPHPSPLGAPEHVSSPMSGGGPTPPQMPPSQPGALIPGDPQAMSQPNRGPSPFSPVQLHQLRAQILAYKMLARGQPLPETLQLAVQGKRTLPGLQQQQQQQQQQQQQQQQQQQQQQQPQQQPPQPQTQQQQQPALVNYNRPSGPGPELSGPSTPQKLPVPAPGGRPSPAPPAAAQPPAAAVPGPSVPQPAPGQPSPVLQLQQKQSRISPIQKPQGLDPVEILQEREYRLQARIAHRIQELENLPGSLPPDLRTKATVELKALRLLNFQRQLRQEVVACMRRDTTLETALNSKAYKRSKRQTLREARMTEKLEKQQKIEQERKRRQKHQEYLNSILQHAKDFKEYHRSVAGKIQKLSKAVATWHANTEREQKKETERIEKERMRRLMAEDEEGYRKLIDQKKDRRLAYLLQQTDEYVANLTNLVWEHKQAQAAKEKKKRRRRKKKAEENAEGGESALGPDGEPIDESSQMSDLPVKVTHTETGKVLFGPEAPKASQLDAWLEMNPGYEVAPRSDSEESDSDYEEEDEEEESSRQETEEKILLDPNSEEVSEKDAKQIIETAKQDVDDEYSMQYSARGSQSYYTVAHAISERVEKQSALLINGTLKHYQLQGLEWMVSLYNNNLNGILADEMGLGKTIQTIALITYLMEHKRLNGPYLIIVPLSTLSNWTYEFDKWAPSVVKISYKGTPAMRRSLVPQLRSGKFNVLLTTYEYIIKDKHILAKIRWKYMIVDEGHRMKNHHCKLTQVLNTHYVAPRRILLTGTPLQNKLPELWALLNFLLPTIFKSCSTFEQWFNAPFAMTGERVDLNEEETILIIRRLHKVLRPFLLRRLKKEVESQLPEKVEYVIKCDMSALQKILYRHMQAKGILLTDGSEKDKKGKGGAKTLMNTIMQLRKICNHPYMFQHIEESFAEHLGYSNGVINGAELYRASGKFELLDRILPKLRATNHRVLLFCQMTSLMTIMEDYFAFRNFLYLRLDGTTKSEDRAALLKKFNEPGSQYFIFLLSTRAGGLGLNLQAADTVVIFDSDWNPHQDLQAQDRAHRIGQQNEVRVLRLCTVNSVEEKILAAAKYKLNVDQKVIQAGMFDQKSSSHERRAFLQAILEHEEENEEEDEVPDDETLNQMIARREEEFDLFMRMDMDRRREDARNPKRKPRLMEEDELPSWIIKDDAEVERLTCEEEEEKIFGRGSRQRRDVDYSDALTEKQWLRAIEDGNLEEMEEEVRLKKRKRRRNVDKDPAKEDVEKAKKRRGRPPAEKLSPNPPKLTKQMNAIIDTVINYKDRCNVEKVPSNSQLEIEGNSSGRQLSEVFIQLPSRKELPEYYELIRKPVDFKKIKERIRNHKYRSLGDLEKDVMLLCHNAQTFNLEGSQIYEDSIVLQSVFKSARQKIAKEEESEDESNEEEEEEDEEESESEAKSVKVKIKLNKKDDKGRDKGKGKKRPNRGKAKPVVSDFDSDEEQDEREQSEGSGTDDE
Sequence of 5-hydroxytryptamine receptor 5A (P47898 whole entry): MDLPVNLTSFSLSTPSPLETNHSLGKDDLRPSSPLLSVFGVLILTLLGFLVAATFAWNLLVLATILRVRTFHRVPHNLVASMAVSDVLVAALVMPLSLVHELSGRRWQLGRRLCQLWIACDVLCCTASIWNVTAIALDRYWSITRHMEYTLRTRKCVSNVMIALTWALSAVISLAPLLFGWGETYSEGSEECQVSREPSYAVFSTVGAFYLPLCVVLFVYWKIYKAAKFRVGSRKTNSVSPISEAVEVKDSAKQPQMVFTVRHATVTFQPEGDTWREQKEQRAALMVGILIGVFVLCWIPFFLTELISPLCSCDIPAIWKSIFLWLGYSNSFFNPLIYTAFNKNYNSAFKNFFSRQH

Take `Cc1nn(-c2ccccc2)c(C)c1NC(=O)COC(=O)c1ccc(Cl)c(S(N)(=O)=O)c1`: in the assay with Escherichia coli, the AC50 is 28.1 µM (active).

`CCOC(=O)C1(CCc2ccccc2)CCN(Cc2ccco2)CC1`: the EC50 in assay [1] was 1.19 µM (active); in assay [2], > 92.5 µM (inactive); on Mu-type opioid receptor, > 92.5 µM (inactive); in assay [3], > 92.5 µM (inactive).

Regarding `c1ccc(C2NCc3ccccc3-n3cccc32)cc1` (stereo not drawn), in the assay on Escherichia coli, the AC50 is > 150 µM (inactive).

Turning to `COc1ccc(-n2c(C)cc(C(=O)CCl)c2C)cc1`, the EC50 in “cells [4]” is > 350 µM (not active); in the assay “cells [5]”, > 350 µM (not active); on Protein RecA, 19 µM (active); in the assay on HEK293 [8], > 59.7 µM (inactive); with HEK293 [9] it was > 59.7 µM (inactive). Also, on Hexokinase HKDC1, the IC50 was 27 µM (inactive). Moreover, the results for the AC50 in [6] and in assay [7] were 6.44 µM (active) and 22.9 µM (active), respectively.

Regarding `O=C1C2C3C=CC(C4CC34)C2C(=O)N1/N=C/c1ccc([N+](=O)[O-])o1` (stereo not drawn), the EC50 is > 91.1 µM (inactive) in assay [10], > 91.1 µM (inactive) in [11], > 59.6 µM (inactive) with HEK293 [8] and > 59.6 µM (inactive) with HEK293 [9].

In general, AC50 refers to the concentration giving half of the maximal activity seen. As usually defined, the EC50 is the concentration that produces a half-maximal response. As a reminder, the IC50 is the concentration that inhibits the measured activity by half.
